“Also recorded” adds a separate entry of the source.
Legend:
[1] = system: small bowel tumor burden in APCmin mice; test: APCmin mouse model: small bowel tumor count after peptide vaccination; assay type: in vivo; conditions: for effect on small bowel tumor burden (tumor count): APCmin mice, vs CFA/IFA control, 50 ug per peptide s.c.; for peptide efficacy, APCmin Small Bowel (Spontaneous): summary table, Yes/No
Protocol: (§1) Offspring from APCmin were genotyped by PCR for the presence of the Min mutation using primers as follows: Wild-Type: 5′-[…]-3′ (SEQ ID NO: 46), Common 5′-[…]-3′ (SEQ ID NO: 47), Mutant: 5′-[…]-3′ (SEQ ID NO: 48). Both male and female mice testing positive for the Min mutation were included in the study and randomized into groups.
(§2) At 4-6 weeks of age, mice were immunized in CFA/IFA, PBS, and vaccine groups. Each group received subcutaneous injections (100 ul PBS, 50 ul CFA with 50 ul PBS, 50 ug per peptide with 50 ul CFA) once every 7-10 days for a total of three doses and one booster was given 4-5 weeks after the third vaccine. See Table 5 for peptides included in vaccine compositions. CFA was replaced with IFA after the first vaccine. All mice were sacrificed at 14 to 17 weeks of age, the gastrointestinal tracts were collected and tumors counted.

[2] = system: colon tumor burden in APCmin mice; test: APCmin mouse model: colon tumor count after peptide vaccination; assay type: in vivo; conditions: for effect on colon tumor burden (tumor count): APCmin mice, vs CFA/IFA control, 50 ug per peptide s.c.; for peptide efficacy, APCmin Colon (Spontaneous): summary table, Yes/No
Protocol: as §1, §2

[3] = system: colon tumor burden in AOM mice (Azoxymethane + FVB); test: AOM mouse model: colon tumor count after peptide vaccination; assay type: in vivo; conditions: for effect on colon tumor burden (tumor count): AOM treated FVB mice, vs control group (CFA/IFA; PBS for IGF1R, PRL3, RCAS1); for peptide efficacy, Azoxymethane + FVB (Induced): summary table, Yes/No
Protocol: AOM mouse in-vivo experiments. At 6 weeks of age, FVB mice were immunized in CFA/IFA, PBS, and vaccine groups. Each group received subcutaneous injections (100 ul PBS, 50 ul CFA with 50 ul PBS, 50 ug per peptide with 50 ul CFA) once every 10-14 days for a total of three doses and a booster was given every 4-5 weeks after the third vaccine. See Table 7 for peptides included in vaccine compositions. CFA was replaced with IFA after the first vaccine. Seven days after the third vaccine, mice were injected with Azoxymethane (AOM) at 10 mg/kg, twice weekly for 6 weeks. At 26 weeks of age, all mice were sacrificed and tumors in the colon were counted.

[4] = system: MC-38 cells (murine adenocarcinoma); test: MC-38 tumor implant model: tumor volume after peptide vaccination; assay type: in vivo, C57Bl/6 mice; conditions: for effect on tumor volume: MC-38 tumor implant in C57Bl/6 mice, vs CFA/IFA; for peptide efficacy, MC-38 + B6 (Tumor Implant): summary table, Yes/No
Protocol: MC-38 tumor implant in-vivo experiments. At 6 weeks of age, mice were immunized in CFA/IFA, PBS, and vaccine groups. Each group received subcutaneous injections (100 ul PBS, 50 ul CFA with 50 ul PBS, 50 ug per peptide with 50 ul CFA) once every 10-14 days for a total of three doses. See Table 9 for peptides included in vaccine compositions. CFA was replaced with IFA for the second and third vaccines. Two weeks after the final vaccine, we subcutaneously implanted 4×10^4 MC-38 cells (murine adenocarcinoma), and measured tumor growth with Vernier calipers 2-3 times per week. Tumor volume was calculated as length×width×height×π/6, which is the standard volume calculation of an ellipsoid. Mice were sacrificed when tumor size in control mice reached greater than 1000 mm^3.

[5] = system: small bowel tumor burden in APCmin mice; test: APCmin survival study: small bowel tumor count at sacrifice; assay type: in vivo; conditions: boosters every 4-5 weeks, vs CFA/IFA
Protocol: At 4-6 weeks of age, mice were immunized with CFA/IFA, PBS, and vaccine groups. Each group received subcutaneous injections (100 ul PBS, 50 ul CFA with 50 ul PBS, 50 ug per peptide with 50 ul CFA) once every 7-10 days for a total of three doses and a booster vaccine was given every 4-5 weeks after the third vaccine. See Table 6 for peptides included in vaccine compositions. CFA was replaced with IFA after the first vaccine. […] At sacrifice, small intestines were collected and small bowel tumors counted.

Substance	effect on small bowel tumor burden (tumor count) [1]	peptide efficacy, APCmin Small Bowel (Spontaneous) [1]	effect on colon tumor burden (tumor count) [2]	peptide efficacy, APCmin Colon (Spontaneous) [2]	effect on colon tumor burden (tumor count) [3]	peptide efficacy, Azoxymethane + FVB (Induced) [3]	effect on tumor volume [4]	peptide efficacy, MC-38 + B6 (Tumor Implant) [4]	effect on small bowel tumor burden (tumor count) [5]
IGF1R: peptide vaccine of IGF1R #1, #2, #3, #4, 50 ug per peptide with CFA/IFA (chain 1 VVTGYVKIRHSHALV; chain 2 TQYAVYVKAVTLTMV; chain 3 LVIMLYVFHRKRNNS; chain 4 GMAYLNANKFVHRDL; with CFA/IFA adjuvant)	vaccine efficacy; also recorded: significantly inhibits	Yes	lack of IGF1R vaccine efficacy; also recorded: does not significantly inhibit	No	lack of IGF1R vaccine efficacy; also recorded: does not significantly inhibit	No	does not significantly inhibit	No	
CDC25B: peptide vaccine of CDC25B #38 (p130-150) and #39 (p405-427), 50 ug per peptide with CFA/IFA (chain 1 QAIQAASRIIRNEQFAIRRFQ; chain 2 VDGKHQDLKYISPETMVALLTGK; with CFA/IFA adjuvant)	significantly inhibits; also recorded: vaccine efficacy	Yes	does not significantly inhibit; also recorded: lack of CDC25B vaccine efficacy	No	vaccine efficacy; also recorded: significantly inhibits	Yes	significantly inhibits	Yes	does not significantly inhibit
COX2: peptide vaccine of COX-2 #32, #33, #34, 50 ug per peptide with CFA/IFA (chain 1 FKGFWNVVNNIPFLRN; chain 2 GLVPGLMMYATIWLREH; chain 3 GEVGFQIINTASIQSLIC; with CFA/IFA adjuvant)	significantly inhibits; also recorded: vaccine efficacy	Yes	does not significantly inhibit; also recorded: lack of COX2 vaccine efficacy	No	vaccine efficacy; also recorded: significantly inhibits	Yes	significantly inhibits	Yes	does not significantly inhibit

From patent publication US10759836B2, “Cancer vaccine compositions and methods of use thereof” (UNIVERSITY OF WASHINGTON, priority 2014, dated 2020)
